Data published in patent US9447135B2, “Semi-synthetic mithramycin derivatives with anti-cancer activity” (UNIVERSITY OF KENTUCKY RESEARCH FOUNDATION, priority 2012, dated 2016).
Read-outs that look alike come from different tables or passages of the source.

How the values were obtained:
[1] = system: HCT-116 non-Ewing sarcoma cell line; experiment: 72 hour cytotoxicity, HCT-116; type: cell-based; conditions: non-Ewing sarcoma cell line HCT-116, 72 hour
Procedure: (§1) The cytotoxicity of a subgroup of the MTM SA analogues was tested against various Ewing sarcoma cell lines and non-Ewing sarcoma cell lines over a 72 hour period. Each analogue was checked individually with a range of concentrations to determine the IC50 of the molecule in actively growing cell cultures.

[2] = system: PC3 non-Ewing sarcoma cell line; experiment: 72 hour cytotoxicity, PC3; type: cell-based; conditions: non-Ewing sarcoma cell line PC3, 72 hour
Procedure: as §1

[3] = system: ES-2 Ewing sarcoma cell line; experiment: 72 hour cytotoxicity, ES-2; type: cell-based; conditions: Ewing sarcoma cell line ES-2, 72 hour
Procedure: as §1

TC32 cells = experiment: Cell cycle distribution, FACS analysis; type: cell-based; conditions: 100 nM of drug for 24 hours
Procedure: FIG. 12(b) is a FACs analysis of TC32 cells treated with 100 nM of drug for 24 hours.
(§2) Studies were conducted using MTM and lead analogs (mithramycin-SK (MTM-SK), mithramycin-SA-tryptophan (MTM-SA-Trp), and mithramycin-SA-phenylalanine (MTM-SA-Phe)). EWS-FLI1 promoter occupancy was investigated using chromatin immune precipitation real time PCR (ChIP-RTPCR). The effect of drug treatment on expression of genes controlled by EWSFLI1 was evaluated by quantitative real-time PCR (qRT-PCR) (FIG. 11). The effect of treatment with 100 nM of drug for 24 hours on cell cycle distribution was also compared among analogs (FIG. 12(b)). […] In addition, the maximum tolerated dose (MTD) and the effect of treatment on plasma total-calcium were used to assess relative toxicity in mice.
(§3) EWS-FLI1 promoter occupancy upstream from Nr0b1, Tgfbr2, and Rcor1 genes was evaluated in Ewing sarcoma cells (TC32 cells) by ChIP-RTPCR. […] (FIG. 11). […] (FIG. 12(a)). Furthermore, the effect of drug treatment appears to lead to differences in cell-cycle progression. […] (FIG. 12(b)).

[4] = system: ES-3 Ewing sarcoma cell line; experiment: 72 hour cytotoxicity, ES-3; type: cell-based; conditions: Ewing sarcoma cell line ES-3, 72 hour
Procedure: as §1

[5] = system: 5838 Ewing sarcoma cell line; experiment: 72 hour cytotoxicity, 5838; type: cell-based; conditions: Ewing sarcoma cell line 5838, 72 hour
Procedure: as §1

[6] = system: SK-ES-1 Ewing sarcoma cell line; experiment: 72 hour cytotoxicity, SK-ES-1; type: cell-based; conditions: Ewing sarcoma cell line SK-ES-1, 72 hour
Procedure: as §1

[7] = system: OVCAR-8 non-Ewing sarcoma cell line; experiment: 72 hour cytotoxicity, OVCAR-8; type: cell-based; conditions: non-Ewing sarcoma cell line OVCAR-8, 72 hour
Procedure: as §1

[8] = system: ES-8 Ewing sarcoma cell line; experiment: 72 hour cytotoxicity, ES-8; type: cell-based; conditions: Ewing sarcoma cell line ES-8, 72 hour
Procedure: as §1

[9] = system: TC71 Ewing sarcoma cell line; experiment: 72 hour cytotoxicity, TC71; type: cell-based; conditions: Ewing sarcoma cell line TC71, 72 hour
Procedure: as §1

[10] = system: VCaP non-Ewing sarcoma cell line; experiment: 72 hour cytotoxicity, VCaP; type: cell-based
Procedure: as §1

[11] = system: TC32 Ewing sarcoma cell line; experiment: 72 hour cytotoxicity, TC32; type: cell-based; conditions: Ewing sarcoma cell line TC32, 72 hour
Procedure: as §1

Ewing cell lines = experiment: In vitro efficacy, GI50 (72-hr) in Ewing cell lines; type: cell-based; conditions: Ewing cell lines (n=8)
[12] = system: DU145 non-Ewing sarcoma cell line; experiment: 72 hour cytotoxicity, DU145; type: cell-based; conditions: non-Ewing sarcoma cell line DU145, 72 hour
Procedure: as §1

[13] = system: genes controlled by EWS-FLI1 in TC32 cells; experiment: Expression of genes controlled by EWS-FLI1 by qRT-PCR; type: cell-based; conditions: 6 hours, dose dependent
Procedure: FIG. 11A, FIG. 11B, FIGS. 11C, 11D, and 11E provide a series of graphs showing that MTM analogs have increased cytoxicity and distinct cell cycle distribution in Ewing sarcoma. The graphs show relative gene expression in TC32 cells treated with MTM analogs. Three genes controlled by the EWS-FLI1 transcription factor were investigated by qRT-PCR at four different treatment concentrations for 6 hours. CCK served as a negative control.
as §2, §3

[14] = system: Ewing sarcoma (TC32, 5838, SKES1) and non-Ewing (A459 (lung) and PC3 (prostate)) cancer cell lines; experiment: Selectivity assay, Ewing sarcoma versus non-Ewing cell panel (72 hr cytotoxicity)
[15] = system: C42 non-Ewing sarcoma cell line; experiment: 72 hour cytotoxicity, C42; type: cell-based; conditions: non-Ewing sarcoma cell line C42, 72 hour
Procedure: as §1

[16] = system: ES-7 Ewing sarcoma cell line; experiment: 72 hour cytotoxicity, ES-7; type: cell-based; conditions: Ewing sarcoma cell line ES-7, 72 hour
Procedure: as §1

[17] = system: A549, human non-small cell lung cancer cells; experiment: 72 hour cytotoxicity, A549 (resazurin); type: cell-based; conditions: non-Ewing sarcoma cell line A549, 72 hour
Procedure: The cytotoxic effects of the side chain modifications of SA were investigated in order to determine whether the modification were beneficial to the drug structure. All cytotoxicity assays were performed with A549, human non-small cell lung cancer cells. A549 cells were cultured as specified from ATCC at 37° C., 5% CO2. The cells were added to a 96 well plate (5,000 cells/well) and permitted to attach for 24 h. After 24 h culture media were replaced with the side chain modified MTM SA derivative containing media at differing concentrations. The cells were incubated with the drug containing media for 72 hrs total (n=8). Cell viability was determined using a resazurin assay that signifies mitochondrial metabolic activity in living cells. […] of a 1 mM resazurin solution in PBS was added to the control and analogue-treated cells at the end of the treatment period. Cell viability was determined three hours later by reading the fluorescence at 560 nm (Ex)/590 nm (Em). The fluorescence signals were quantified using a Spectramax M5 plate reader (Molecular Devices) equipped with a SoftMaxPro software. Cytotoxicity was determined by calculating the half maximal inhibitory concentration (IC50) of each sample.
as §1

[18] = 72 hour cytotoxicity, RH30; type: cell-based; conditions: Ewing sarcoma cell line RH30, 72 hour; read-out: IC50 (nM) RH 30
Procedure: as §1

[19] = biological target: T1, EWS-FLI1 promoter occupancy upstream from Nr0b1, Tgfbr2, and Rcor1 genes in TC32 cells (Homo sapiens, UniProt Q01543+Q01844); experiment: EWS-FLI1 promoter occupancy by ChIP-RTPCR; type: cell-based
T1 construct: containing the 5′ region of EWS (Ewing sarcoma breakpoint region 1) and the 3′ ETS region of Fli-1; N-terminal part of EWS (EWSR1, Q01844), natural fusion partner from the translocation; endogenous in cells; host or cells: TC32 Ewing sarcoma cells
T1 sequence (Q01844+Q01543 fused): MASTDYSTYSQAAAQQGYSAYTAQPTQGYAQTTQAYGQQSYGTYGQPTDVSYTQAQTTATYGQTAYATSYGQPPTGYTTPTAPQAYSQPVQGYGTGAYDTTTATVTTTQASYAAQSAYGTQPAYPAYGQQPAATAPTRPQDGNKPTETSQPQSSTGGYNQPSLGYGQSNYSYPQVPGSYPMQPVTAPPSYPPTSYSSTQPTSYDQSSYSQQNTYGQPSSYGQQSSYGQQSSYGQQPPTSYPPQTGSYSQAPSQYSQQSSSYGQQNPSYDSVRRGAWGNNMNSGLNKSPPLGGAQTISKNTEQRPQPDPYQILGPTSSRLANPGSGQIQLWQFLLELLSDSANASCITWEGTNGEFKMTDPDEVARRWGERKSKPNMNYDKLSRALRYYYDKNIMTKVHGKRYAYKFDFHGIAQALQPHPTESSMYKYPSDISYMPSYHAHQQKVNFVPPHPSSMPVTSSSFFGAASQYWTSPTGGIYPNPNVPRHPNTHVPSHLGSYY
Procedure: as §2, §3

[20] = system: A673 Ewing sarcoma cell line; experiment: 72 hour cytotoxicity, A673; type: cell-based; conditions: Ewing sarcoma cell line A673, 72 hour
Procedure: as §1

[21] = system: ES-4 Ewing sarcoma cell line; experiment: 72 hour cytotoxicity, ES-4; type: cell-based; conditions: Ewing sarcoma cell line ES-4, 72 hour
Procedure: as §1

[22] = system: U118 non-Ewing sarcoma cell line; experiment: 72 hour cytotoxicity, U118; type: cell-based; conditions: non-Ewing sarcoma cell line U118, 72 hour
Procedure: as §1

[23] = system: RDES Ewing sarcoma cell line; experiment: 72 hour cytotoxicity, RDES; type: cell-based
Procedure: as §1

[24] = system: several cancer cell lines; conditions: cited from earlier work

COC(=O)C(Cc1cccc2[nH]ccc12)NC(=O)[C@@H](OC)[C@@H]1Cc2cc3cc(OC4CC(OC5CC(O)C(O)C(C)O5)C(O)C(C)O4)c(C)c(O)c3c(O)c2C(=O)[C@H]1OC1CC(OC2CC(OC3CC(C)(O)C(O)C(C)O3)C(O)C(C)O2)C(O)C(C)O1 (some centres unmarked) [MTMSA-Trp]
IC50 ([1]; Homo sapiens): 23 nM | IC50 [2]: 45 nM | IC50 [3]: 63 nM | cell cycle distribution (TC32 cells): increased S-phase accumulation | IC50 [4]: 64 nM | IC50 [5]: 10 nM | IC50 ([6]; Homo sapiens, SK-ES1): 38 nM | IC50 ([7]; Homo sapiens): 72 nM | IC50 [8]: 40 nM | IC50 ([9]; TC-71): 34 nM | IC50 ([10]; Homo sapiens): 20 nM | IC50 ([11]; Homo sapiens, TC-32): 18 nM | potency (GI50) among Ewing cell lines compared to other analogs (Ewing cell lines): relatively higher potency (lower GI50) | IC50 ([12]; Homo sapiens, DU-145): 31 nM | rank-order of efficiency of mRNA down-regulation (qRT-PCR) [13]: MTM-SA-Trp>MTM=MTM-SK | selectivity against Ewing sarcoma cells relative to non-Ewing cells ([14]; FIG. 9, right panel): 9 fold | more potent than MTM ([14]; against Ewing sarcoma cells, relative to MTM): about 3 fold | higher selectivity than MTM against Ewing sarcoma relative to non-Ewing cell lines ([14]; relative to MTM, 72 hr): 3 fold | IC50 [15]: 96 nM | IC50 [16]: 41 nM | IC50 ([17]; Homo sapiens): 87 nM | IC50 [18]: 48 nM | effect on FLI1 binding to promoters (ChIP-RTPCR) [19]: the most destabilizing | IC50 ([20]; Homo sapiens): 44 nM | IC50 [21]: 33 nM | IC50 [22]: 56 nM | IC50 ([23]; RD-ES): 39 nM

CO[C@@H]([C@@H]1Cc2cc3cc(O[C@H]4C[C@@H](O[C@H]5C[C@@H](O)[C@H](O)[C@@H](C)O5)[C@H](O)[C@@H](C)O4)c(C)c(O)c3c(O)c2C(=O)[C@H]1O[C@H]1C[C@@H](O[C@H]2C[C@@H](O[C@H]3C[C@](C)(O)[C@H](O)[C@@H](C)O3)[C@@H](O)[C@@H](C)O2)[C@H](O)[C@@H](C)O1)[C@@H](O)C(C)=O [MTMSK, reference compound]
IC50 [1]: 31 nM | IC50 [2]: 37 nM | IC50 [3]: 39 nM | cell cycle distribution (TC32 cells): primarily in G1/G2 phase | IC50 [4]: 56 nM | IC50 [5]: 23 nM | IC50 [6]: 25 nM | IC50 [7]: 29 nM | IC50 [8]: 44 nM | IC50 [9]: 31 nM | IC50 [10]: 36 nM | IC50 ([11]; read-out: IC50 (nM) TC 32): 23 nM | IC50 ([12]; read-out: IC50 (nM) DU 145): 32 nM | rank-order of efficiency of mRNA down-regulation (qRT-PCR) [13]: MTM-SA-Trp>MTM=MTM-SK | IC50 [15]: 89 nM | activity compared to the parent MTM [24]: increased activity | IC50 [16]: 42 nM | IC50 [17]: 30 nM | IC50 [18]: 62 nM | effect on FLI1 binding to promoters (ChIP-RTPCR) [19]: mostly stabilize FLI1 | IC50 [20]: 37 nM | IC50 [21]: 32 nM | IC50 [23]: 40 nM
